For one series, the target named is p38 MAP kinase (Homo sapiens, UniProt Q16539). Description: Inhibition of p38 MAP kinase, IC50 relative to SB-203580. It counts as biochemical. Particulars: relative activity = ratio IC50 (SB-203580)/IC50 (test compound); the higher the value, the more active.
The test system of another series is TNF-α. Description: Inhibition of TNF-α release, IC50 relative to SB-203580. It counts as cell-based. Particulars: relative activity = ratio IC50 (SB-203580)/IC50 (test compound); the higher the value, the more active. The text has this:
The action spectrum of the compounds as inhibitors of the release of TNF-α and IL-1β was investigated with the aid of the test systems as described by Donat C. and Laufer S. in Arch. Pharm. Pharm. Med. Chem. 333, Suppl. 1, 1-40, 2000. The IC50 values obtained were set in relation to the values for the compound SB-203580 of the formula
The numerical values given in the following table are therefore the relative activity, calculated from the ratio of IC50 (SB-203580)/IC50 (test compound). […] The compounds in which R1 represents H represent the prior art according to WO2006/120010.

Some results are limits rather than exact numbers.

p38 MAP kinase, sequence (Q16539 whole entry): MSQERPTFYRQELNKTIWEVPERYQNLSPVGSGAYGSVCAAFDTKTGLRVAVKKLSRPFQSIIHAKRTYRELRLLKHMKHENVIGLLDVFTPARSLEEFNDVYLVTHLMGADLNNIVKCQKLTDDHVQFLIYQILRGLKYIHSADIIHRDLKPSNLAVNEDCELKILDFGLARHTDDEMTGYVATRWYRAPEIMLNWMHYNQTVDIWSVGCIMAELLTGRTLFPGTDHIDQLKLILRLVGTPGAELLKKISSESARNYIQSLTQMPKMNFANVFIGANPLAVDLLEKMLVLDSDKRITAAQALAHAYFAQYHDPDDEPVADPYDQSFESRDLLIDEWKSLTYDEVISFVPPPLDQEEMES

As to `O=C1c2ccc(Nc3ccc(F)cc3F)cc2CCc2cc(OCCO)ccc21` [2-(2,4-Difluorophenylamino)-8-(2-hydroxyethoxy)-10,11-dihydrodibenzo[a,d]-cyclohepten-5-one], the “p38 MAP kinase” value at p38 MAP kinase was 2.60.
Turning to `O=C1c2ccc(Nc3ccc(F)cc3F)cc2CCc2cc(OCCN3CCOCC3)ccc21` [2-(2,4-Difluorophenylamino)-8-(2-morpholin-4-yl-ethoxy)-10,11-dihydrodibenzo[a,d]cyclohepten-5-one], on p38 MAP kinase, the “p38 MAP kinase” value is given as 2.53.
On to `O=C1c2ccc(Nc3ccc(F)cc3F)cc2CCc2ccc(OC3CCOCC3)cc21` [2-(2,4-Difluoroanilino)-7-(2-tetrahydropyran-4-yl-oxy)-10,11-dihydrodibenzo[a,d]-cyclohepten-5-one], for which the “p38 MAP kinase” value on p38 MAP kinase was 0.74. Besides, the “Inhibition of TNF-α” value in the series on TNF-α is 1.98.
As to `O=C1c2ccc(Nc3ccc(F)cc3F)cc2CCc2c(OCCN3CCOCC3)cccc21` [8-(2,4-Difluorophenylamino)-1-(2-morpholin-4-yl-ethoxy)-10,11-dihydrodibenzo[a,d]cyclo-hepten-5-one], the “p38 MAP kinase” value on p38 MAP kinase was 1.26.
Usually melting point stands for the temperature of the solid-liquid transition. Consider `Nc1ccc2c(c1)COc1cc(Nc3ccc(C(F)(F)F)cc3N)ccc1C2=O` [Example 92, 8-Amino-3-(2-amino-4-trifluoromethylphenylamino)-6H-dibenzo[b,e]oxepin-11-one], for which the melting point came out at 93.9 °C.
`O=C1c2ccc(Nc3ccc(F)cc3F)cc2CCc2c(O)cccc21` [8-(2,4-Difluorophenylamino)-1-hydroxy-10,11-dihydrodibenzo[a,d]cyclohepten-5-one]: the “p38 MAP kinase” value at p38 MAP kinase turned out to be 2.26. In addition, the “Inhibition of TNF-α” value in the series with TNF-α was found to be 0.06.
The corresponding values for `O=C1c2ccc(Nc3ccc(F)cc3F)cc2CCc2ccc(O)cc21` [2-(2,4-Difluoroanilino)-7-hydroxy-10,11-dihydrodibenzo[a,d]-cyclohepten-5-one] are 2.03 and 1.80.
The like results for `COc1ccc2c(c1)C(=O)c1ccc(Nc3ccccc3N)cc1CC2` [2-(2-Aminoanilino)-7-methoxydibenzosuberone] were, in that order, 1.00 and 0.91.
`Nc1ccc2c(c1)COc1cc(Nc3ccc(F)cc3N)ccc1C2=O` [3-(2-Amino-4-fluorophenylamino)-8-amino-6H-dibenzo[b,e]oxepin-11-one] showed a melting point of 194.5 °C. Moreover, the “p38 MAP kinase” value on p38 MAP kinase was found to be 1.15. Also, in the series with TNF-α, the “Inhibition of TNF-α” value was found to be 0.24.
Regarding `COc1ccc2c(c1)C(=O)c1ccc(Nc3ccc(F)cc3N)cc1CC2` [2-(2-Amino-4-fluoroanilino)-7-methoxydibenzosuberone], on p38 MAP kinase, the “p38 MAP kinase” value worked out at 0.92. Besides, in the series on TNF-α, the “Inhibition of TNF-α” value is listed as 0.73.
Consider `O=C1c2ccc(-n3cnnn3)cc2COc2cc(Nc3ccc(F)cc3F)ccc21` [Example 95, 3-(2,4-Difluorophenylamino)-8-tetrazol-1-yl-6H-dibenzo[b,e]oxepin-11-one], for which the melting point was found to be 59 °C.
Take `COc1ccc2c(c1)CCc1cc(Nc3ccc(F)cc3F)ccc1C2=O` [2-(2,4-Difluorophenylamino)-8-methoxy-10,11-dihydrodibenzo[a,d]cyclo-hepten-5-one]: the “p38 MAP kinase” value at p38 MAP kinase worked out at 2.60.
As to `Nc1ccc2c(c1)COc1cc(Nc3ccccc3N)ccc1C2=O` [3-(2-Aminophenylamino)-8-amino-6H-dibenzo[b,e]oxepin-11-one], the melting point amounted to 203.9 °C. Moreover, the “p38 MAP kinase” value at p38 MAP kinase worked out at 0.93.
For `Nc1ccccc1Nc1ccc2c(c1)CCc1ccc(OC[C@@H](O)CO)cc1C2=O` [2-(2-Aminoanilino)-7-[2S-,3-dihydroxypropoxy]-10,11-dihydrodibenzo[a,d]-cyclohepten-5-one], the “p38 MAP kinase” value at p38 MAP kinase was determined as 1.54. Moreover, the “Inhibition of TNF-α” value with TNF-α is given as more than 5.
As for `O=C1c2ccc(Nc3ccc(F)cc3F)cc2CCc2ccc(OCCCO)cc21` [2-(2,4-Difluoroanilino)-7-(3-hydroxy-propoxy)-10,11-dihydrodibenzo[a,d]-cyclohepten-5-one], the “p38 MAP kinase” value on p38 MAP kinase is recorded as 4.85. Further, the “Inhibition of TNF-α” value with TNF-α is listed as more than 5.
With `COc1ccccc1Nc1ccc2c(c1)OCc1cc(N)ccc1C2=O` [8-Amino-3-(2-methoxyphenylamino)-6H-dibenzo[b,e]oxepin-11-one], the melting point was found to be 68.4 °C. Further, at p38 MAP kinase, the “p38 MAP kinase” value was 0.14. In the series on TNF-α, the “Inhibition of TNF-α” value came out at 0.04.
`COc1ccc2c(c1)C(=O)c1ccc(Nc3ccccc3OC)cc1CC2` [2-(2-Methoxyanilino)-7-methoxydibenzosuberone]: on p38 MAP kinase, the “p38 MAP kinase” value is recorded as 0.11. Also, in the series with TNF-α, the “Inhibition of TNF-α” value stood at 0.18.
For the compound `O=C1c2ccc(Nc3ccc(F)cc3F)cc2CCc2c(OC[C@H](O)CO)cccc21` [(R)-8-(2,4-Difluorophenylamino)-1-(2,3-dihydroxypropoxy)-10,11-dihydrodibenzo-[a,d]cyclohepten-5-one], on p38 MAP kinase, the “p38 MAP kinase” value amounted to 1.76.
For the compound `CC1(C)OC[C@H](COc2ccc3c(c2)C(=O)c2ccc(Nc4ccccc4N)cc2CC3)O1` [2-(Aminoanilino)-7-(S-1,2-isopropylideneglycer-3-yl)-10,11-dihydrodibenzo[a,d]-cyclohepten-5-one], the “p38 MAP kinase” value at p38 MAP kinase is 1.31. The “Inhibition of TNF-α” value in the series with TNF-α is reported as more than 5.
For `Nc1ccc2c(c1)COc1cc(Nc3ccc(F)cc3F)ccc1C2=O` [Example 82, 3-(2,4-Difluorophenylamino)-8-amino-6H-dibenzo[b,e]oxepin-11-one], the melting point is 184 to 193 °C.
`O=C1c2ccc(NC(=O)N3CCOCC3)cc2COc2cc(Nc3ccc(F)cc3F)ccc21` [Morpholine-4-carboxylic acid [3-(2,4-difluorophenylamino)-1-oxo-6,11-dihydrodibenzo[b,e]oxepin-8-yl]amide] yielded a melting point of 244.3 °C. Also, the “p38 MAP kinase” value on p38 MAP kinase is listed as 0.51.
Consider `COc1ccc2c(c1)C(=O)c1ccc(Nc3ccc(F)cc3F)cc1CC2` [2-(2,4-Difluoroanilino)-7-methoxydibenzosuberone], for which the “p38 MAP kinase” value at p38 MAP kinase is reported as 1.59. Moreover, the “Inhibition of TNF-α” value in the series on TNF-α stood at 0.70.
